Data taken from publication PMC8766756, “Insights on Cancer Cell Inhibition, Subcellular Activities, and Kinase Profile of Phenylacetamides Pending 1H-Imidazol-5-One Variants” (Frontiers in Pharmacology, 2022).
Values joined by “and” are separate entries in the source; they are usually repeats but may differ in a detail not shown here. Identical values can stand only once.

Legend:
Assay in all cases: PamChip tyrosine kinase microarray
Assay type in all cases: biochemical
Conditions in all cases: 0.1 µM, HL60 lysate
LTK (P29376) = molecular target: T1, LTK (P29376) (Homo sapiens, UniProt P29376)
T1 construct: purchased PamGene (PamChip PTK array, Upstream Kinase Analysis)
T1 sequence (P29376 17-864): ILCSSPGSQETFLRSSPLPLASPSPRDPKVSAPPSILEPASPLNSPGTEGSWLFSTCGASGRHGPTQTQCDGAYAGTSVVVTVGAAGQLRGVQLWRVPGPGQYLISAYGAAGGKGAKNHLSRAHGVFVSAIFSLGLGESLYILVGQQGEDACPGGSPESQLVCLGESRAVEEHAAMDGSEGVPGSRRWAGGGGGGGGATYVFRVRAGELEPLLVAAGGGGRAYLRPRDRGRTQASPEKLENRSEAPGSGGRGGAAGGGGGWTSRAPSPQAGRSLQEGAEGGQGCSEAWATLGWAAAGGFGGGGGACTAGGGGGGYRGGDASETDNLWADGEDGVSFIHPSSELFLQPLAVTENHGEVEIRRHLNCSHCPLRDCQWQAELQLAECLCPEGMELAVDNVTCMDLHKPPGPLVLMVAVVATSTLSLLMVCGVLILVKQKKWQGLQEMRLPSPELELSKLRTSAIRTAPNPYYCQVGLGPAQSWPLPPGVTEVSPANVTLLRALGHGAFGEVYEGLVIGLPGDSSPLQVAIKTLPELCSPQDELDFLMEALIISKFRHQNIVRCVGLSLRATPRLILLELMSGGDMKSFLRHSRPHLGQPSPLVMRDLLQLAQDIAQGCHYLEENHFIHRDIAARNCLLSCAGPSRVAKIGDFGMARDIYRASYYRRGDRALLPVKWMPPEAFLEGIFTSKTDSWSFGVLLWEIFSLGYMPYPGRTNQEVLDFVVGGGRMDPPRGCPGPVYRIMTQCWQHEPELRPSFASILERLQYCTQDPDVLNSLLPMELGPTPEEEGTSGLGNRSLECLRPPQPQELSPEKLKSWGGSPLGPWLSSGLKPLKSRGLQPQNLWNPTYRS
Protocol: (§1) The reproducible high potency of KIM-161 on leukemia cell lines was initially speculated to encompass Src tyrosine kinase inhibition. Even so, we also suspected that KIM-161 might be affecting other tyrosine kinases because the HL60 cells are not among the most Src-dependent highly proliferative cells ([Collins, 1987]). Therefore, a profiling of the kinase activities was performed after treatment with KIM-161 using PamChip® tyrosine kinase microarray. This analysis is based on incubation of cell lysate with 3D microarray that projects peptides specific for 143 tyrosine kinases. If a kinase is modified in the cells, it will be detected by phosphorylating its specific peptide in the microarray.
(§2) This test measured the activities of an array of tyrosine kinases of treated HL60 cells compared to the control (untreated cells) after incubation with KIM-161 for 48 h at concentrations of 0.001, 0.01, 0.1, 1.0, 10, and 50 µM. The log fold change (LFC) heat map was initially used to identify significant peptides affected at each concentration (Figure 5).
(§3) An Upstream Kinase Tool was used to generate a putative list of kinases responsible for phosphorylating the phosphosites on the PamChip®. It is an interpretation and is highly dependent on the contents of the underlying phosphorylation databases. Kinase score (Table 2) was used for ranking kinases based on their significance and specificity in terms of the set of peptides used for the corresponding kinase. Kinase statistics indicates the overall change of the peptide set that represents a certain kinase. Kinase statistics value of <0 indicates lower kinase activity in the lysate spiked with the compound and vice versa. Table 2 lists the 20 most changed kinases within treated HL60 cell lysates by 0.1 μM KIM-161.
(§4) Every compound had spiked into a leukemic (AML) cell line HL60 lysate at different concentrations (0.001, 0.01, 0.1, 1, 10, and 50 μM). In addition, DMSO had also spiked at a low concentration (2% v/v) to the HL60 lysate as the control. The samples were profiled on PamGene's tyrosine kinase (PTK) arrays in technical replicates, covering a total of 196 phosphorylation sites. The frozen leukemic HL60 cultured cell pellet was sent to PamGene. At PamGene, the cells were lysed in the presence of the lysis buffer and proteases inhibitor cocktail. The protein concentration was measured using the standard Bradford assay as per the PamGene SOPs. These lysates were further used for generating the PTK activity profiles. For spiking, KIM-161 was received in powder form and dissolved in DMSO at the PamGene facility, followed by storing it at −20°C in small aliquots. PamGene used its in-house bioinformatics toolbox in combination with other methods to generate the hypotheses of signaling pathways.

Tyro3/Sky (Q06418) = molecular target: T2, Tyro3/Sky (Q06418) (Homo sapiens, UniProt Q06418)
T2 construct: purchased PamGene (PamChip PTK array, Upstream Kinase Analysis)
T2 sequence (Q06418 41-890): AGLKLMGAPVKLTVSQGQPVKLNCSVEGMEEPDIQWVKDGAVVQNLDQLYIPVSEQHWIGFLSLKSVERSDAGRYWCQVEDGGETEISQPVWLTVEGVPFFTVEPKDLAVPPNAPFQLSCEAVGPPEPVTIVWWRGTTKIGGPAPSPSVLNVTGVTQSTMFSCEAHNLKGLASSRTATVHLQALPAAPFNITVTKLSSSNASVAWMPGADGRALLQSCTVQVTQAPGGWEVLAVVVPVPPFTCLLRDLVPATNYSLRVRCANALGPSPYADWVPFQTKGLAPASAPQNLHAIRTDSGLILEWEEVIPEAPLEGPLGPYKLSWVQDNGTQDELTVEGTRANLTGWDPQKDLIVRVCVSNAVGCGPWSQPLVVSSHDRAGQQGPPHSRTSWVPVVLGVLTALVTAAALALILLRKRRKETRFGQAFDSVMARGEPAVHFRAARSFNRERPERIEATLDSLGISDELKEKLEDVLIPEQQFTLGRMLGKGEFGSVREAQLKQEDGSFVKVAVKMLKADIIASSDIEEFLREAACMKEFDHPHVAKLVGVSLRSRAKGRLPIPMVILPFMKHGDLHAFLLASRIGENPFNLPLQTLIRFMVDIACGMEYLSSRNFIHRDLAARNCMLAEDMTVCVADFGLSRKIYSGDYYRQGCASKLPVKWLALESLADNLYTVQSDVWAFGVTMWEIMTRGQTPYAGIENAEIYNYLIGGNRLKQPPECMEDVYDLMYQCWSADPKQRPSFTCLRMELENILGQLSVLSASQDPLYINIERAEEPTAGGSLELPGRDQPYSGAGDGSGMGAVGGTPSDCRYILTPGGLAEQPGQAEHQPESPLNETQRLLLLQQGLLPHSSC
Protocol: as §1, §2, §3, §4

IGF1R (P08069) = molecular target: T3, IGF1R (P08069) (Homo sapiens, UniProt P08069)
T3 construct: purchased PamGene (PamChip PTK array, Upstream Kinase Analysis)
T3 sequence (P08069 31-1367): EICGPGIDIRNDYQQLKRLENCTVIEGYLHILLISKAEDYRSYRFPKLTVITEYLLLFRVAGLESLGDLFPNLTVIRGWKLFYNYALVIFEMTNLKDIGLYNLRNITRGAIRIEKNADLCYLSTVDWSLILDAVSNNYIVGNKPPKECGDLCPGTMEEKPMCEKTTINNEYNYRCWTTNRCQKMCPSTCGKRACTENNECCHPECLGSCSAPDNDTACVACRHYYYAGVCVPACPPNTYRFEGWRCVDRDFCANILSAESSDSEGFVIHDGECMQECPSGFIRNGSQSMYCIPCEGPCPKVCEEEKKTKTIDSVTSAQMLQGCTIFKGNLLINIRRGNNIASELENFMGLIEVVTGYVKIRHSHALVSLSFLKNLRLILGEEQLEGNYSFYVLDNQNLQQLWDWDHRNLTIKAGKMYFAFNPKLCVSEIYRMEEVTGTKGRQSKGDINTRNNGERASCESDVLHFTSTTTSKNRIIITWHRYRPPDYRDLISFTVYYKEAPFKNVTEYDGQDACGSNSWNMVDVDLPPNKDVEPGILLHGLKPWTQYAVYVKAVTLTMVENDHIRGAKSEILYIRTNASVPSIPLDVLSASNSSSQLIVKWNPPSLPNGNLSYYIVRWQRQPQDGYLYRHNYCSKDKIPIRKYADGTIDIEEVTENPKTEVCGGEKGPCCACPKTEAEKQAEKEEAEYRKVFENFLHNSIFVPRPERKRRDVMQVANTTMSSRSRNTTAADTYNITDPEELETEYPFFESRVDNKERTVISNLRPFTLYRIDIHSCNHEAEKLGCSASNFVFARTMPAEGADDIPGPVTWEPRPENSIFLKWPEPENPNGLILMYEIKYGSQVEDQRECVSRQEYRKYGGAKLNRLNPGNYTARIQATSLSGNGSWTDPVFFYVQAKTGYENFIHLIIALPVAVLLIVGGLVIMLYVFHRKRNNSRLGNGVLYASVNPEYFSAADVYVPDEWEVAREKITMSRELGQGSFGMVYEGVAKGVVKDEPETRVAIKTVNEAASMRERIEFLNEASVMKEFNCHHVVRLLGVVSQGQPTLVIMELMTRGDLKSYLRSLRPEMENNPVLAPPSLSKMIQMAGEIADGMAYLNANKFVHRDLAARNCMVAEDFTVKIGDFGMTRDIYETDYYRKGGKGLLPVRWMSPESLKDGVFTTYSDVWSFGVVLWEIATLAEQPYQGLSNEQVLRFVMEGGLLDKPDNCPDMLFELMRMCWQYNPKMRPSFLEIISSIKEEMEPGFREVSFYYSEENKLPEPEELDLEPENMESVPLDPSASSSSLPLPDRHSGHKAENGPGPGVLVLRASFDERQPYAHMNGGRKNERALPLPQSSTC
Protocol: as §1, §2, §3, §4

TEC (P42680) = molecular target: T4, TEC (P42680) (Homo sapiens, UniProt P42680)
T4 construct: purchased PamGene (PamChip PTK array, Upstream Kinase Analysis)
T4 sequence (P42680 1-631): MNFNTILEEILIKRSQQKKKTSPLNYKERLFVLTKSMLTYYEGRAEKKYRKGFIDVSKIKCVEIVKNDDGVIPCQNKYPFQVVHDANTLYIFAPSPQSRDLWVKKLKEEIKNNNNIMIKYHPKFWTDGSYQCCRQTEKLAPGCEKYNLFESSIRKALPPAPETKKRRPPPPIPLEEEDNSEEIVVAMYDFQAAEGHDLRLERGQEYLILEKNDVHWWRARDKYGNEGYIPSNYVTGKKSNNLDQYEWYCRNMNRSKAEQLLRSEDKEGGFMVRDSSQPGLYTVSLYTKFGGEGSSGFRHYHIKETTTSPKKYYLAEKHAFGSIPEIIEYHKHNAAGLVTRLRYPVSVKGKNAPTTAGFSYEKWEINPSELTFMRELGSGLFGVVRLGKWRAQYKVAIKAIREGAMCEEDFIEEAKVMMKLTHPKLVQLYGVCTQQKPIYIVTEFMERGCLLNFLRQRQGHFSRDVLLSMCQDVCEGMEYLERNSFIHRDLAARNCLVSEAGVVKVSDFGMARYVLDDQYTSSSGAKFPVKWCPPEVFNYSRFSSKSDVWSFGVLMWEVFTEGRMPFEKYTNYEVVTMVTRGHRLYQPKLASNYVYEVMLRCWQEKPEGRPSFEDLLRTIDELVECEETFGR
Protocol: as §1, §2, §3, §4

## COc1ccc(/C=C2\N=C(C)N(c3ccc(CC(=O)NCc4ccccc4)cc3)C2=O)cc1 [Compound 4c, (Z)-N-Benzyl-2-(4-(4-(4-methoxybenzylidene)-2-methyl-5-oxo-4,5-dihydro-1H-imidazol-1-yl)phenyl)acetamide]
LTK (P29376)
  Mean Final score (Kinase score): 1.968
  Mean Kinase Statistic: -1.055
  Mean Significance Score: 1.724
  Mean Specificity Score: 0.1654
Tyro3/Sky (Q06418)
  Mean Significance Score: 2.048
  Mean Specificity Score: 1.177
Tyro3/Sky (Q06418); listed as KIM-161
  Mean Final score (Kinase score): 3.29 and 3.287
IGF1R (P08069)
  Mean Final score (Kinase score): 2.173
  Mean Kinase Statistic: -1.034
  Mean Significance Score: 2.048
  Mean Specificity Score: 0.1033
TEC (P42680)
  Mean Final score (Kinase score): 2.197
  Mean Kinase Statistic: -1.125
  Mean Significance Score: 2.048
  Mean Specificity Score: 0.171
